Source: paper PMC8225045, “Chemical Synthesis and Structure-Activity Relationship Study Yield Desotamide a Analogues with Improved Antibacterial Activity” (Marine Drugs, 2021)
Converted amounts (≈) assume the structure as drawn. Read-outs that look alike come from different tables or passages of the source. Non-standard residues stand in square brackets, D forms with d. Residues, ends and D or L forms follow the SMILES beside them. aIle = CC[C@@H](C)[C@H](N)C(=O)O; dOrn = NCCC[C@@H](N)C(=O)O

What was measured:
Bacillus subtilis BS01 = assay: microbe, parasite or virus in culture
Procedure: (§1) All the synthesized cyclopeptides (7–19) and the desotamide A (1) isolated from S. scopuliridis SCSIO ZJ46 were evaluated for antibacterial activities against a series of Gram-positive pathogens including […] Staphylococcus aureus ATCC29213, Bacillus subtilis BS01, Micrococcus luteus ML01, Enterococcus faecalis ATCC29212; 3 drug-resistant poultry pathogens Staphylococcus simulans LJH13, Enterococcus gallinarum LJH11, Staphylococcus haemolyticus LJH9; 4 clinical methicillin-resistant Staphylococcus aureus (MRSA) shhs-E1, MRSA 16339, MRSA 745524, MRSA 16162. Their antibacterial activities against the […] pathogens Escherichia coli ATCC 13,124 and clinical drug-resistant Klebsiella pneumonia 15580 were also assayed.
(§2) Ampicillin, vancomycin and polymyxin were used as control. The maximum test concentrations for all the compounds were 128 μg/mL.

[1] = test system: Enterococcus faecalis ATCC 29212; assay: microbe, parasite or virus in culture
Procedure: as §1, §2

[2] = test system: Enterococcus gallinarum LJH11; assay: microbe, parasite or virus in culture
Procedure: as §1, §2

MRSA 16162 = assay: microbe, parasite or virus in culture
Procedure: as §1, §2

MRSA 16339 = assay: microbe, parasite or virus in culture
Procedure: as §1, §2

MRSA 745524 = assay: microbe, parasite or virus in culture
Procedure: as §1, §2

Micrococcus luteus ML01 = assay: microbe, parasite or virus in culture
Procedure: as §1, §2

[3] = test system: Staphylococcus aureus ATCC 29213; assay: microbe, parasite or virus in culture
Procedure: as §1, §2

[4] = test system: Staphylococcus haemolyticus LJH9; assay: microbe, parasite or virus in culture
Procedure: as §1, §2

[5] = test system: Staphylococcus simulans LJH13; assay: microbe, parasite or virus in culture
Procedure: as §1, §2

[6] = test system: methicillin-resistant Staphylococcus aureus (MRSA) shhsE1; assay: microbe, parasite or virus in culture
Procedure: as §1, §2

E. coli ATCC 13124 = test system: E. coli ATCC 13124
Procedure: as §1, §2

Gram-positive pathogens = conditions: for Gram positive antibacterial activity for desotamides (in words) / Gram positive antibacterial activity for wollamides (in words): summary; for Gram positive antibacterial activity for desotamides (in words): Figure 2; for Gram positive antibacterial activity for wollamides (in words): Figure 3
Procedure: as §1, §2

[7] = test system: Klebsiella pneumoniae 15580
Procedure: as §1, §2

Gram-negative pathogens = conditions: weak activity; summary of Table 1
Procedure: as §1, §2

[8] = clinical MRSA shhsE1, two-fold serial dilution, Mueller-Hinton broth, 96-well plate, CLSI-based, maximum test concentration 128 μg/mL
[9] = E. coli ATCC 13124, two-fold serial dilution, Mueller-Hinton broth, 96-well plate, CLSI-based, maximum test concentration 128 μg/mL
[10] = Bacillus subtilis BS01, two-fold serial dilution, Mueller-Hinton broth, 96-well plate, CLSI-based, maximum test concentration 128 μg/mL
[11] = Enterococcus faecalis ATCC 29212, two-fold serial dilution, Mueller-Hinton broth, 96-well plate, CLSI-based, maximum test concentration 128 μg/mL
[12] = Enterococcus gallinarum LJH11, drug-resistant poultry pathogen, two-fold serial dilution, Mueller-Hinton broth, 96-well plate, CLSI-based, maximum test concentration 128 μg/mL
[13] = clinical MRSA 16162, two-fold serial dilution, Mueller-Hinton broth, 96-well plate, CLSI-based, maximum test concentration 128 μg/mL
[14] = clinical MRSA 16339, two-fold serial dilution, Mueller-Hinton broth, 96-well plate, CLSI-based, maximum test concentration 128 μg/mL
[15] = clinical MRSA 745524, two-fold serial dilution, Mueller-Hinton broth, 96-well plate, CLSI-based, maximum test concentration 128 μg/mL
[16] = Micrococcus luteus ML01, two-fold serial dilution, Mueller-Hinton broth, 96-well plate, CLSI-based, maximum test concentration 128 μg/mL
[17] = Staphylococcus aureus ATCC 29213, two-fold serial dilution, Mueller-Hinton broth, 96-well plate, CLSI-based, maximum test concentration 128 μg/mL
[18] = Staphylococcus haemolyticus LJH9, drug-resistant poultry pathogen, two-fold serial dilution, Mueller-Hinton broth, 96-well plate, CLSI-based, maximum test concentration 128 μg/mL
[19] = Staphylococcus simulans LJH13, drug-resistant poultry pathogen, two-fold serial dilution, Mueller-Hinton broth, 96-well plate, CLSI-based, maximum test concentration 128 μg/mL
[20] = clinical drug-resistant Klebsiella pneumoniae 15580, two-fold serial dilution, Mueller-Hinton broth, 96-well plate, CLSI-based, maximum test concentration 128 μg/mL

| Compound | MIC (Bacillus subtilis BS01; BS01) [µg/mL] | MIC ([1]; ATCC 29212) [µg/mL] | MIC [2] [µg/mL] | MIC (MRSA 16162; 16162) [µg/mL] | MIC (MRSA 16339; 16339) [µg/mL] | MIC (MRSA 745524; 745524) [µg/mL] | MIC (Micrococcus luteus ML01; ML01) [µg/mL] | MIC ([3]; ATCC 29213) [µg/mL] | MIC [4] [µg/mL] | MIC [5] [µg/mL] | MIC ([6]; methicillin-resistant shhsE1) [µg/mL] | Gram positive antibacterial activity for desotamides (in words) (Gram-positive pathogens) | MIC [7]; 15580 [µg/mL] | MIC [6, 8] [µg/mL] | MIC (E. coli ATCC 13124; [9]) [µg/mL] | Gram positive antibacterial activity for wollamides (in words) (Gram-positive pathogens) | MIC (Bacillus subtilis BS01; [10]) [µg/mL] | MIC [1, 11] [µg/mL] | MIC [2, 12] [µg/mL] | MIC [7, 20] [µg/mL] | also measured |
| --- | --- | --- | --- | --- | --- | --- | --- | --- | --- | --- | --- | --- | --- | --- | --- | --- | --- | --- | --- | --- | --- |
| CC[C@@H](C)[C@@H]1NC(=O)[C@@H](CC(C)C)NC(=O)[C@H](CC(C)C)NC(=O)[C@H](Cc2c[nH]c3ccccc23)NC(=O)CNC(=O)[C@H](CC(N)=O)NC1=O [Compound 1, desotamide A] (cyclo(GWL[dL][aIle]N)) | 32 (≈ 45.9 µM) | 64 (≈ 91.8 µM) | 64 (≈ 91.8 µM) | 32 (≈ 45.9 µM) | 16 (≈ 23 µM) | 8 (≈ 11.5 µM) | 32 (≈ 45.9 µM) | 32 (≈ 45.9 µM) | 128 (≈ 184 µM) | 16 (≈ 23 µM) | 64 (≈ 91.8 µM) | Moderately active | >128 |  |  |  |  |  |  |  | MIC (E. coli ATCC 13124; ATCC 13124): >128 µg/mL |
| CC(C)C[C@@H]1NC(=O)[C@H](Cc2c[nH]c3ccccc23)NC(=O)[C@@H](CCCNC(=N)N)NC(=O)[C@H](CC(N)=O)NC(=O)[C@H](C(C)C)NC(=O)[C@@H](CC(C)C)NC1=O [Compound 8, Wollamide B1] (cyclo([dR]WL[dL]VN)) | 8 (≈ 10.2 µM) | 32 (≈ 40.9 µM) | 64 (≈ 81.8 µM) | 16 (≈ 20.5 µM) | 16 (≈ 20.5 µM) | 16 (≈ 20.5 µM) | 8 (≈ 10.2 µM) | 16 (≈ 20.5 µM) | 32 (≈ 40.9 µM) | 8 (≈ 10.2 µM) |  |  | >128 | 16 (≈ 20.5 µM) | 128 (≈ 164 µM) | 2–4-Fold more active than 7 |  |  |  |  | fold increase of anti-Gram-positive activity compared to wollamide B (7) (Gram-positive pathogens; Gram-positive bacteria): 2–4 folds |
| CC[C@H](C)[C@@H]1NC(=O)[C@H](CC(N)=O)NC(=O)[C@@H](CCCNC(=N)N)NC(=O)[C@H](Cc2c[nH]c3ccccc23)NC(=O)[C@H](CC(C)C)NC(=O)[C@@H](CC(C)C)NC1=O [Compound 15, Desotamide A6] (cyclo(I[dL]LW[dR]N)) | 8 (≈ 10.1 µM) | 32 (≈ 40.2 µM) | 128 (≈ 161 µM) | 16 (≈ 20.1 µM) | 16 (≈ 20.1 µM) | 8 (≈ 10.1 µM) | 8 (≈ 10.1 µM) | 16 (≈ 20.1 µM) | 32 (≈ 40.2 µM) | 8 (≈ 10.1 µM) | 8 (≈ 10.1 µM) | 2–4-Fold more active than 1 | >128 |  |  |  |  |  |  |  | MIC against the Gram-negative pathogens tested (summary) (Gram-negative pathogens): 64 to 128 µg/mL; MIC values against Gram-positive pathogens (summary over the panel) (Gram-positive pathogens): 8 to 32 µg/mL; fold increase of antibacterial activities compared to desotamide A (1) (Gram-positive pathogens; entire test panel of Gram-positive bacteria): 2–4 fold |
| CC(C)C[C@@H]1NC(=O)[C@H](Cc2c[nH]c3ccccc23)NC(=O)[C@@H](CCCN)NC(=O)[C@H](CC(N)=O)NC(=O)[C@H](C(C)C)NC(=O)[C@@H](CC(C)C)NC1=O [Compound 7, Wollamide B] (cyclo([dOrn]WL[dL]VN)) |  |  |  |  |  |  |  |  |  |  |  |  |  | 32 (≈ 43.2 µM) | 128 (≈ 173 µM) | Moderately active | 32 (≈ 43.2 µM) | 128 (≈ 173 µM) | >128 | >128 | MIC (MRSA 16162; [13]): 64 µg/mL (≈ 86.5 µM); MIC (MRSA 16339; [14]): 64 µg/mL (≈ 86.5 µM); MIC (MRSA 745524; [15]): 32 µg/mL (≈ 43.2 µM); MIC (Micrococcus luteus ML01; [16]): 16 µg/mL (≈ 21.6 µM); MIC [3, 17]: 32 µg/mL (≈ 43.2 µM); MIC [4, 18]: 64 µg/mL (≈ 86.5 µM); MIC [5, 19]: 16 µg/mL (≈ 21.6 µM) |
| polymyxin [reference compound] |  |  |  |  |  |  |  |  |  |  |  |  |  |  | 16 |  |  |  |  | 2 |  |
| cyclo(Asn-Ile-D-Leu-Leu-Trp-D-His) (head to tail) [Compound 18, Desotamide A9] |  |  |  |  |  |  |  |  |  |  |  | Inactive |  | >128 |  |  | >128 | >128 | >128 | >128 | MIC (MRSA 16162; [13]): >128 µg/mL; MIC (MRSA 16339; [14]): >128 µg/mL; MIC (MRSA 745524; [15]): >128 µg/mL; MIC (Micrococcus luteus ML01; [16]): >128 µg/mL; MIC [3, 17]: >128 µg/mL; MIC [4, 18]: >128 µg/mL; MIC [5, 19]: >128 µg/mL; MIC values against Gram-positive pathogens (summary over the panel) (Gram-positive pathogens; series of Gram-positive pathogens including MRSA, summary of Table 1): > 128 µg/mL |
